According to patent US12649750B2, “Macrocyclic compounds, compositions, and methods of using thereof” (Sionna Therapeutics Inc., priority 2022, dated 2026):

Key:
NBD1 = target: T1, NBD1 (Homo sapiens, UniProt P13569); assay: Aggregation analysis using differential static light scattering (DSLS), thermal stability of NBD1 (ΔTagg); format: binding; conditions: ΔTagg versus DMSO control, NBD1 0.2 mg/ml
T1 construct: Purified recombinant NBD1 was produced using previously described methods; made in house
T1 sequence (P13569 423-646 limits assumed): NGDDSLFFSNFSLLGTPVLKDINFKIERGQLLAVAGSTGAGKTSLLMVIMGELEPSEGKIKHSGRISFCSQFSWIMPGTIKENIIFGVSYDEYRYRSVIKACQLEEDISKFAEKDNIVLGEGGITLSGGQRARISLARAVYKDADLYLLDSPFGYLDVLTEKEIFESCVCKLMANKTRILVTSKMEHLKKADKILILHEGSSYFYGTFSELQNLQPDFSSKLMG
In short: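 Purified recombinant NBD1 at 0.2 mg/ml in Tris buffer pH7.6 with 2 mM ATP, 5 mM MgCl2, 2 mM DTT and 1% glycerol was mixed with DMSO-dissolved compounds under mineral oil. Plates were heated at 1° C. per minute to 70° C., light scattering imaged every 0.5° C.; Tagg from curve inflection, minus DMSO-control mean.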

CFTR = target: T2, CFTR (Homo sapiens, UniProt P13569, DEL508-508); assay: TECC24 AUC fold over DMSO @10 μM, CFTR-mediated transepithelial chloride transport in CF-HBE cells; format: cell-based; conditions: test agent AUC divided by DMSO vehicle AUC, primary CF-HBE cells, ΔF508 homozygous donor, 48 hours incubation
T2 construct: Primary human bronchial epithelial cells from a ΔF508 homozygous CF donor; host or cells: primary human bronchial epithelial cells (CF-HBE), ΔF508 homozygous donor
T2 sequence (P13569 with tags, fused parts or gaps DEL508-508): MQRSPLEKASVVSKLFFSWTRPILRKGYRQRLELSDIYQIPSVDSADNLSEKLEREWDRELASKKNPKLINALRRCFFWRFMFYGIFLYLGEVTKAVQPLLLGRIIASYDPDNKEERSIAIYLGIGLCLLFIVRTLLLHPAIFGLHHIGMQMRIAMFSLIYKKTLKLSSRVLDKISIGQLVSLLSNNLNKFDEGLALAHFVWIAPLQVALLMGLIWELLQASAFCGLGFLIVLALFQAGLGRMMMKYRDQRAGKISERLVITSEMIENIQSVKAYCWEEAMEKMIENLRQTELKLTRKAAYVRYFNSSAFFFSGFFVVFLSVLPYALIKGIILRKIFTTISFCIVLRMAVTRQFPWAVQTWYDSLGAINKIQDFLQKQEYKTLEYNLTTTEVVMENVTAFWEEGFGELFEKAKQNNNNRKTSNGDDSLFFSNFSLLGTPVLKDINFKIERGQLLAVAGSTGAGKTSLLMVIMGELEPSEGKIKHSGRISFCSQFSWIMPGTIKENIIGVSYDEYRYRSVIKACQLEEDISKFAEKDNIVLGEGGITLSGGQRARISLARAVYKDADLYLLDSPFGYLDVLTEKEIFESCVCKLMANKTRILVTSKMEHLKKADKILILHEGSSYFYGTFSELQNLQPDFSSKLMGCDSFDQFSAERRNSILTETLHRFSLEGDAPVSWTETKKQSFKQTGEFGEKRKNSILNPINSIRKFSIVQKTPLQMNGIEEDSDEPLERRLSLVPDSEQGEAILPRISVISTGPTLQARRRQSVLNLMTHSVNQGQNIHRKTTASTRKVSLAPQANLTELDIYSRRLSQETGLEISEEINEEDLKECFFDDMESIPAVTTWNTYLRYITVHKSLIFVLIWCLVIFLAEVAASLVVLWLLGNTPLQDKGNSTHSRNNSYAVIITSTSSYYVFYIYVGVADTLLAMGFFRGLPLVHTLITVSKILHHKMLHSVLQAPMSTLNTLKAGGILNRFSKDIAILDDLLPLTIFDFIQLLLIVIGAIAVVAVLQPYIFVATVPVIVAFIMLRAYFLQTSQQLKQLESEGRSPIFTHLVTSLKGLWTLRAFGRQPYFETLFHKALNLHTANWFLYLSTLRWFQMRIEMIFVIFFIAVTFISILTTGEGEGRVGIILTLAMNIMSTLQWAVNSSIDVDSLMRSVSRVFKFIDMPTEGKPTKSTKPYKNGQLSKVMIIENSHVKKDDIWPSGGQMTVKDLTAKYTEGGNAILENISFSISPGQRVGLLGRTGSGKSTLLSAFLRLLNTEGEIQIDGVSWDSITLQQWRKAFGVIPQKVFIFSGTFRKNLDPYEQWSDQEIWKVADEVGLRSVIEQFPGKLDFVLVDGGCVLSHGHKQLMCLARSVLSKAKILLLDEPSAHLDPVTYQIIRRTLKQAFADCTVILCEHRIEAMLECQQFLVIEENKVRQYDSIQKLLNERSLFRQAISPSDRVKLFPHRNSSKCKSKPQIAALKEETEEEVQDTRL
In short: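 ΔF508-homozygous primary bronchial epithelial cells incubated 48 h at 36.5° C with compound (10 μM) in IL-13-containing medium, then TECC24 current-clamp recording in pH 7.4 Hepes saline with benzamil 10 μM, forskolin 10 μM, then CFTR inhibitor-172 20 μM. Equivalent Cl− current AUC between forskolin and inhibitor, expressed as fold over DMSO.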

| SMILES | DSLS 3D (100 μM ΔT) (NBD1) | TECC (AUC, 10 μM) (CFTR) |
| --- | --- | --- |
| C[C@H](Cc1cccc(C2(C)CCCC(C)(C)CS(=O)(=O)CCc3c(c(F)cc4[nH]ccc34)C(=O)c3ccc(F)c(c3)-c3nc2nn3C)c1)C(=O)O (single isomer, unassigned) [Compound 126A] | C (a value greater than 10 °C and less than or equal to 25 °C is marked “C”) | B (a value between 12-20 is marked “B”) |
| C[C@H](Cc1cccc(C2(C)CCCC(C)(C)CS(=O)(=O)CCc3c(c(F)cc4[nH]ccc34)C(=O)c3ccc(F)c(c3)-c3nc2nn3C)c1)C(=O)O (single isomer, unassigned) [Compound 126B] | B (a value above 5 °C and less than or equal to 10 °C is marked “B”) | B (a value between 12-20 is marked “B”) |
| COc1ccc2cc1-c1nc(nn1C)C(C)(c1cccc(C[C@@H](C)C(=O)O)c1)CCCC(C)(C)CS(=O)(=O)CCc1c(c(F)cc3[nH]ccc13)C2=O (single isomer, unassigned) [Compound 127A] | B (a value above 5 °C and less than or equal to 10 °C is marked “B”) | A (a TECC value less than 12 is marked “A”) |
| COc1ccc2cc1-c1nc(nn1C)C(C)(c1cccc(C[C@@H](C)C(=O)O)c1)CCCC(C)(C)CS(=O)(=O)CCc1c(c(F)cc3[nH]ccc13)C2=O (single isomer, unassigned) [Compound 127B] | A (an ΔTagg value less than or equal to 5 °C is marked “A”) | A (a TECC value less than 12 is marked “A”) |
| C[C@@H](Cc1cccc(C2(C)CCCC(C)(C)CS(=O)(=O)CCc3c(c(F)cc4[nH]ccc34)Oc3ccc(F)c(c3)-c3nc2c[nH]3)c1)C(=O)O (single isomer, unassigned) [Compound 129A] | A (an ΔTagg value less than or equal to 5 °C is marked “A”) | A (a TECC value less than 12 is marked “A”) |
| C[C@@H](Cc1cccc(C2(C)CCCC(C)(C)CS(=O)(=O)CCc3c(c(F)cc4[nH]ccc34)Oc3ccc(F)c(c3)-c3nc2c[nH]3)c1)C(=O)O (single isomer, unassigned) [Compound 129B] | C (a value greater than 10 °C and less than or equal to 25 °C is marked “C”) | A (a TECC value less than 12 is marked “A”) |
| [2H]C([2H])([2H])C1(c2cccc(C[C@H](C)C(=O)O)c2)CCCC2(COC2)CS(=O)(=O)CCc2c(c(F)cc3[nH]ccc23)Oc2ccc(F)c(c2)-c2nc1nn2C (single isomer, unassigned) [Compound 130A] | C (a value greater than 10 °C and less than or equal to 25 °C is marked “C”) | C (a value between 20 and 80 is marked “C”) |
| [2H]C([2H])([2H])C1(c2cccc(C[C@H](C)C(=O)O)c2)CCCC2(COC2)CS(=O)(=O)CCc2c(c(F)cc3[nH]ccc23)Oc2ccc(F)c(c2)-c2nc1nn2C (single isomer, unassigned) [Compound 130B] | C (a value greater than 10 °C and less than or equal to 25 °C is marked “C”) | C (a value between 20 and 80 is marked “C”) |
| CC(Cc1cccc(C2(C)CCCC(C)(C)CS(=O)(=O)CCc3c(c(F)cc4[nH]ccc34)Cn3cc(ccc3=O)-c3nc2nn3C)c1)C(=O)O (single isomer, unassigned) [Compound 132A, 3-[3-(22-fluoro-3,6,10,10-tetramethyl-12,12,26-trioxo-12λ6-thia-3,4,19,25,30-pentazapentacyclo-[23.3.1.12,5.015,23.016,20]triaconta-1(29),2(30),4,15,17,20,22,27-octaen-6-yl)phenyl]-2-methyl-propanoic Acid] | A (an ΔTagg value less than or equal to 5 °C is marked “A”) | A (a TECC value less than 12 is marked “A”) |
| CC(Cc1cccc(C2(C)CCCC(C)(C)CS(=O)(=O)CCc3c(c(F)cc4[nH]ccc34)Cn3cc(ccc3=O)-c3nc2nn3C)c1)C(=O)O (single isomer, unassigned) [Compound 132B, 3-[3-(22-fluoro-3,6,10,10-tetramethyl-12,12,26-trioxo-12λ6-thia-3,4,19,25,30-pentazapentacyclo-[23.3.1.12,5.015,23.016,20]triaconta-1(29),2(30),4,15,17,20,22,27-octaen-6-yl)phenyl]-2-methyl-propanoic Acid] | C (a value greater than 10 °C and less than or equal to 25 °C is marked “C”) | A (a TECC value less than 12 is marked “A”) |
| CC(Cc1cccc(C2(CNCC(F)(F)F)CCCC(C)(C)CS(=O)(=O)CCc3c(c(F)cc4[nH]ccc34)Oc3ccc(F)c(c3)-c3nc2nn3C)c1)C(=O)O (single isomer, unassigned) [Compound 133A, 3-[3-[22,28-difluoro-3,10,10-trimethyl-12,12-dioxo-6-[(2,2,2-trifluoroethylamino)methyl]-24-oxa-12λ6-thia-3,4,19,30-tetrazapentacyclo[23.3.1.12,5.015,23.016,20]triaconta-1(29),2(30),4,15,17,20,22,25,27-nonaen-6-yl]phenyl]-2-methyl-propanoic Acid] | C (a value greater than 10 °C and less than or equal to 25 °C is marked “C”) | C (a value between 20 and 80 is marked “C”) |
| CC(Cc1cccc(C2(CNCC(F)(F)F)CCCC(C)(C)CS(=O)(=O)CCc3c(c(F)cc4[nH]ccc34)Oc3ccc(F)c(c3)-c3nc2nn3C)c1)C(=O)O (single isomer, unassigned) [Compound 133B, 3-[3-[22,28-difluoro-3,10,10-trimethyl-12,12-dioxo-6-[(2,2,2-trifluoroethylamino)methyl]-24-oxa-12λ6-thia-3,4,19,30-tetrazapentacyclo[23.3.1.12,5.015,23.016,20]triaconta-1(29),2(30),4,15,17,20,22,25,27-nonaen-6-yl]phenyl]-2-methyl-propanoic Acid] | B (a value above 5 °C and less than or equal to 10 °C is marked “B”) | A (a TECC value less than 12 is marked “A”) |
| Cn1nc2nc1-c1cc(ccc1F)Oc1c(F)cc3[nH]ccc3c1CCS(=O)(=O)CC(C)(C)CCCC2(C)c1cccc(CC(O)C(=O)O)c1 (single isomer, unassigned) [Compound 134A, 3-[3-(22,28-Difluoro-3,6,10,10-tetramethyl-12,12-dioxo-24-oxa-12λ6-thia-3,4,19,30-tetrazapentacyclo-[23.3.1.12,5.015,23.016,20]-triaconta-1(29),2(30),4,15,17,20,22,25,27-nonaen-6-yl)phenyl]-2-hydroxy-propanoic Acid] | C (a value greater than 10 °C and less than or equal to 25 °C is marked “C”) | C (a value between 20 and 80 is marked “C”) |
| Cn1nc2nc1-c1cc(ccc1F)Oc1c(F)cc3[nH]ccc3c1CCS(=O)(=O)CC(C)(C)CCCC2(C)c1cccc(CC(O)C(=O)O)c1 (single isomer, unassigned) [Compound 134B, 3-[3-(22,28-Difluoro-3,6,10,10-tetramethyl-12,12-dioxo-24-oxa-12λ6-thia-3,4,19,30-tetrazapentacyclo-[23.3.1.12,5.015,23.016,20]-triaconta-1(29),2(30),4,15,17,20,22,25,27-nonaen-6-yl)phenyl]-2-hydroxy-propanoic Acid] | A (an ΔTagg value less than or equal to 5 °C is marked “A”) | A (a TECC value less than 12 is marked “A”) |
